Test results: patent US20260256792A1, “TREATMENT OF CHRONIC SPONTANEOUS URTICARIA BY ADMINISTERING (R)-2-[3-[4-AMINO-3-(2-FLUORO-4-PHENOXY-PHENYL)PYRAZOLO[3,4-D]PYRIMIDIN-1-YL]PIPERIDINE-1-CARBONYL]-4-METHYL-4-[4-(OXETAN-3-YL)PIPERAZIN-1-YL]PENT-2-ENENITRILE” (priority 2023, published 2026)

Tested on: moderate-to-severe chronic spontaneous urticaria (CSU)
Experiment: Phase 2 CSU study: itch severity score over 7 days (ISS7)
Assay type: in vivo, human
Details: Omalizumab-Naïve Population
From the text: The study comprises a 12 week, randomized, double-blind, placebo-controlled, multi-center, dose-ranging efficacy and safety phase, followed by a 40 week open label extension (OLE) phase (see FIG. 1). The study consists of three phases and an optional OLE phase. […] Clinically, CSU is characterized by the spontaneous and recurrent appearance of pruritic hives. The proposed primary endpoints were the UAS7 at Week 12 in EU and EU reference countries and the ISS7 in the US. Regardless of where a participant was from, all assessments were the same. The UAS7 score is a composite score containing both the HSS7 and the ISS7. This allowed a global assessment of the two key components of urticaria: hives and itch. […] The UAS is a validated PRO measure. […] The daily UAS scores range from 0 to 6 point/day. […] Patients were to complete the UAS using the e-diary. […] The following secondary endpoints were to be analyzed using the same approach as for the primary endpoint: • Change from baseline in UAS7 at Week 4 • Change from baseline in UAS7 at Week 12 (for US and US reference countries) • Change from baseline in ISS7 at Week 12 (except US and US reference countries) • Change from baseline in HSS7 at Week 12

SMILES: CC(C)(C=C(C#N)C(=O)N1CCC[C@@H](n2nc(-c3ccc(Oc4ccccc4)cc3F)c3c(N)ncnc32)C1)N1CCN(C2COC2)CC1 [rilzabrutinib, (R)-2-[3-[4-amino-3-(2-fluoro-4-phenoxy-phenyl)pyrazolo[3,4-d]pyrimidin-1-yl]piperidine-1-carbonyl]-4-methyl-4-[4-(oxetan-3-yl)piperazin-1-yl]pent-2-enenitrile]
- Imputed non-responder n (%) (ISS7 reduction of 5 points or more) (400 mg BID, Week 3): 0 n (%)
- Non-responder n (%) (ISS7 reduction of 5 points or more) (400 mg BID, Week 3): 17 (48.6) n (%)
- OR for rilzabrutinib vs. placebo (ISS7 reduction of 5 points or more) (400 mg BID, Week 3): 2.418
- RRD (%) for rilzabrutinib vs. placebo (ISS7 reduction of 5 points or more) (400 mg BID, Week 3): 21.1%
- Responder n (%) (ISS7 reduction of 5 points or more) (400 mg BID, Week 3): 18 (51.4) n (%)
- Imputed non-responder n (%) (ISS7 reduction of 5 points or more) (400 mg BID, Week 4): 2 (5.7) n (%)
- Non-responder n (%) (ISS7 reduction of 5 points or more) (400 mg BID, Week 4): 17 (48.6) n (%)
- OR for rilzabrutinib vs. placebo (ISS7 reduction of 5 points or more) (400 mg BID, Week 4): 1.476
- Responder n (%) (ISS7 reduction of 5 points or more) (400 mg BID, Week 4): 18 (51.4) n (%)
- Imputed non-responder n (%) (ISS7 reduction of 5 points or more) (400 mg BID, Week 5): 2 (5.7) n (%)
- Non-responder n (%) (ISS7 reduction of 5 points or more) (400 mg BID, Week 5): 15 (42.9) n (%)
- OR for rilzabrutinib vs. placebo (ISS7 reduction of 5 points or more) (400 mg BID, Week 5): 1.334
- RRD (%) for rilzabrutinib vs. placebo (ISS7 reduction of 5 points or more) (400 mg BID, Week 5): 7.3%
- Responder n (%) (ISS7 reduction of 5 points or more) (400 mg BID, Week 5): 20 (57.1) n (%)
- Imputed non-responder n (%) (ISS7 reduction of 5 points or more) (400 mg BID, Week 6): 2 (5.7) n (%)
- Non-responder n (%) (ISS7 reduction of 5 points or more) (400 mg BID, Week 6): 17 (48.6) n (%)
- OR for rilzabrutinib vs. placebo (ISS7 reduction of 5 points or more) (400 mg BID, Week 6): 1.326
- RRD (%) for rilzabrutinib vs. placebo (ISS7 reduction of 5 points or more) (400 mg BID, Week 6): 7.1%
- Responder n (%) (ISS7 reduction of 5 points or more) (400 mg BID, Week 6): 18 (51.4) n (%)
- Imputed non-responder n (%) (ISS7 reduction of 5 points or more) (400 mg BID, Week 7): 2 (5.7) n (%)
- Non-responder n (%) (ISS7 reduction of 5 points or more) (400 mg BID, Week 7): 16 (45.7) n (%)
- OR for rilzabrutinib vs. placebo (ISS7 reduction of 5 points or more) (400 mg BID, Week 7): 1.533
- Responder n (%) (ISS7 reduction of 5 points or more) (400 mg BID, Week 7): 19 (54.3) n (%)
- Imputed non-responder n (%) (ISS7 reduction of 5 points or more) (400 mg BID, Week 8): 3 (8.6) n (%)
- Non-responder n (%) (ISS7 reduction of 5 points or more) (400 mg BID, Week 8): 13 (37.1) n (%)
- OR for rilzabrutinib vs. placebo (ISS7 reduction of 5 points or more) (400 mg BID, Week 8): 1.690
- RRD (%) for rilzabrutinib vs. placebo (ISS7 reduction of 5 points or more) (400 mg BID, Week 8): 13.7%
- Responder n (%) (ISS7 reduction of 5 points or more) (400 mg BID, Week 8): 22 (62.9) n (%)
- Imputed non-responder n (%) (ISS7 reduction of 5 points or more) (400 mg BID, Week 9): 7 (20.0) n (%)
- Non-responder n (%) (ISS7 reduction of 5 points or more) (400 mg BID, Week 9): 16 (45.7) n (%)
- OR for rilzabrutinib vs. placebo (ISS7 reduction of 5 points or more) (400 mg BID, Week 9): 1.462
- Responder n (%) (ISS7 reduction of 5 points or more) (400 mg BID, Week 9): 19 (54.3) n (%)
- Imputed non-responder n (%) (ISS7 reduction of 5 points or more) (400 mg BID, Week 10): 8 (22.9) n (%)
- Non-responder n (%) (ISS7 reduction of 5 points or more) (400 mg BID, Week 10): 19 (54.3) n (%)
- OR for rilzabrutinib vs. placebo (ISS7 reduction of 5 points or more) (400 mg BID, Week 10): 0.883
- RRD (%) for rilzabrutinib vs. placebo (ISS7 reduction of 5 points or more) (400 mg BID, Week 10): −3.1%
- Responder n (%) (ISS7 reduction of 5 points or more) (400 mg BID, Week 10): 16 (45.7) n (%)
- Imputed non-responder n (%) (ISS7 reduction of 5 points or more) (400 mg BID, Week 11): 7 (20.0) n (%)
- Non-responder n (%) (ISS7 reduction of 5 points or more) (400 mg BID, Week 11): 16 (45.7) n (%)
- OR for rilzabrutinib vs. placebo (ISS7 reduction of 5 points or more) (400 mg BID, Week 11): 0.963
- RRD (%) for rilzabrutinib vs. placebo (ISS7 reduction of 5 points or more) (400 mg BID, Week 11): −1.0%
- Responder n (%) (ISS7 reduction of 5 points or more) (400 mg BID, Week 11): 19 (54.3) n (%)
- Imputed non-responder n (%) (ISS7 reduction of 5 points or more) (400 mg BID, Week 12): 11 (31.4) n (%)
- Non-responder n (%) (ISS7 reduction of 5 points or more) (400 mg BID, Week 12): 18 (51.4) n (%)
- OR for rilzabrutinib vs. placebo (ISS7 reduction of 5 points or more) (400 mg BID, Week 12): 1.095
- RRD (%) for rilzabrutinib vs. placebo (ISS7 reduction of 5 points or more) (400 mg BID, Week 12): 2.4%
- Responder n (%) (ISS7 reduction of 5 points or more) (400 mg BID, Week 12): 17 (48.6) n (%)
- Imputed non-responder n (%) (ISS7 reduction of 5 points or more) (400 mg QPM, Week 1): 0 n (%)
- Non-responder n (%) (ISS7 reduction of 5 points or more) (400 mg QPM, Week 1): 25 (67.6) n (%)
- OR for rilzabrutinib vs. placebo (ISS7 reduction of 5 points or more) (400 mg QPM, Week 1): 1.691
- Responder n (%) (ISS7 reduction of 5 points or more) (400 mg QPM, Week 1): 12 (32.4) n (%)
- Imputed non-responder n (%) (ISS7 reduction of 5 points or more) (400 mg QPM, Week 2): 0 n (%)
- Non-responder n (%) (ISS7 reduction of 5 points or more) (400 mg QPM, Week 2): 23 (62.2) n (%)
- OR for rilzabrutinib vs. placebo (ISS7 reduction of 5 points or more) (400 mg QPM, Week 2): 1.637
- Responder n (%) (ISS7 reduction of 5 points or more) (400 mg QPM, Week 2): 14 (37.8) n (%)
- Imputed non-responder n (%) (ISS7 reduction of 5 points or more) (400 mg QPM, Week 3): 0 n (%)
- Non-responder n (%) (ISS7 reduction of 5 points or more) (400 mg QPM, Week 3): 20 (54.1) n (%)
- OR for rilzabrutinib vs. placebo (ISS7 reduction of 5 points or more) (400 mg QPM, Week 3): 1.910
- RRD (%) for rilzabrutinib vs. placebo (ISS7 reduction of 5 points or more) (400 mg QPM, Week 3): 16.0%
- Responder n (%) (ISS7 reduction of 5 points or more) (400 mg QPM, Week 3): 17 (45.9) n (%)
- Imputed non-responder n (%) (ISS7 reduction of 5 points or more) (400 mg QPM, Week 4): 1 (2.7) n (%)
- Non-responder n (%) (ISS7 reduction of 5 points or more) (400 mg QPM, Week 4): 20 (54.1) n (%)
- OR for rilzabrutinib vs. placebo (ISS7 reduction of 5 points or more) (400 mg QPM, Week 4): 1.231
- RRD (%) for rilzabrutinib vs. placebo (ISS7 reduction of 5 points or more) (400 mg QPM, Week 4): 5.0%
- Responder n (%) (ISS7 reduction of 5 points or more) (400 mg QPM, Week 4): 17 (45.9) n (%)
- Imputed non-responder n (%) (ISS7 reduction of 5 points or more) (400 mg QPM, Week 5): 2 (5.4) n (%)
- Non-responder n (%) (ISS7 reduction of 5 points or more) (400 mg QPM, Week 5): 21 (56.8) n (%)
- OR for rilzabrutinib vs. placebo (ISS7 reduction of 5 points or more) (400 mg QPM, Week 5): 0.787
- RRD (%) for rilzabrutinib vs. placebo (ISS7 reduction of 5 points or more) (400 mg QPM, Week 5): −6.3%
- Responder n (%) (ISS7 reduction of 5 points or more) (400 mg QPM, Week 5): 16 (43.2) n (%)
- Imputed non-responder n (%) (ISS7 reduction of 5 points or more) (400 mg QPM, Week 6): 4 (10.8) n (%)
- Non-responder n (%) (ISS7 reduction of 5 points or more) (400 mg QPM, Week 6): 20 (54.1) n (%)
- OR for rilzabrutinib vs. placebo (ISS7 reduction of 5 points or more) (400 mg QPM, Week 6): 1.088
- RRD (%) for rilzabrutinib vs. placebo (ISS7 reduction of 5 points or more) (400 mg QPM, Week 6): 2.0%
- Responder n (%) (ISS7 reduction of 5 points or more) (400 mg QPM, Week 6): 17 (45.9) n (%)
- Imputed non-responder n (%) (ISS7 reduction of 5 points or more) (400 mg QPM, Week 7): 6 (16.2) n (%)
- Non-responder n (%) (ISS7 reduction of 5 points or more) (400 mg QPM, Week 7): 19 (51.4) n (%)
- OR for rilzabrutinib vs. placebo (ISS7 reduction of 5 points or more) (400 mg QPM, Week 7): 1.176
- RRD (%) for rilzabrutinib vs. placebo (ISS7 reduction of 5 points or more) (400 mg QPM, Week 7): 4.0%
- Responder n (%) (ISS7 reduction of 5 points or more) (400 mg QPM, Week 7): 18 (48.6) n (%)
- Imputed non-responder n (%) (ISS7 reduction of 5 points or more) (400 mg QPM, Week 8): 7 (18.9) n (%)
- Non-responder n (%) (ISS7 reduction of 5 points or more) (400 mg QPM, Week 8): 20 (54.1) n (%)
- OR for rilzabrutinib vs. placebo (ISS7 reduction of 5 points or more) (400 mg QPM, Week 8): 0.843
- RRD (%) for rilzabrutinib vs. placebo (ISS7 reduction of 5 points or more) (400 mg QPM, Week 8): −4.4%
- Responder n (%) (ISS7 reduction of 5 points or more) (400 mg QPM, Week 8): 17 (45.9) n (%)
- Imputed non-responder n (%) (ISS7 reduction of 5 points or more) (400 mg QPM, Week 9): 6 (16.2) n (%)
- Non-responder n (%) (ISS7 reduction of 5 points or more) (400 mg QPM, Week 9): 18 (48.6) n (%)
- OR for rilzabrutinib vs. placebo (ISS7 reduction of 5 points or more) (400 mg QPM, Week 9): 1.328
- RRD (%) for rilzabrutinib vs. placebo (ISS7 reduction of 5 points or more) (400 mg QPM, Week 9): 6.5%
- Responder n (%) (ISS7 reduction of 5 points or more) (400 mg QPM, Week 9): 19 (51.4) n (%)
- Imputed non-responder n (%) (ISS7 reduction of 5 points or more) (400 mg QPM, Week 10): 6 (16.2) n (%)
